The test concerns the target T1, human DP2 receptor (Homo sapiens, UniProt Q9Y5Y4).
T1 construct: expressed in transfected cells
T1 sequence (Q9Y5Y4 1-395): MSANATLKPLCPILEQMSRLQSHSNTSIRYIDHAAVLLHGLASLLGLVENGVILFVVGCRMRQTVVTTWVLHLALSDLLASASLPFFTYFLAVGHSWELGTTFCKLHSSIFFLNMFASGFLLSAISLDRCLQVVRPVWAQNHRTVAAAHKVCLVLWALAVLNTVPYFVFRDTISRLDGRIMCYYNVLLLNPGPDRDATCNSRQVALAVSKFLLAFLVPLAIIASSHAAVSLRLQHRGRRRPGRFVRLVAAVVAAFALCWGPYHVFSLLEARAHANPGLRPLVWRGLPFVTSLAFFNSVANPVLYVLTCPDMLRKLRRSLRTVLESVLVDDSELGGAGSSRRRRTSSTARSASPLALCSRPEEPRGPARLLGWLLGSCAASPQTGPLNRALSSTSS
The test can be described thus: DP2/CRTH2 binding assay ([3H]PGD2 radioligand). To be noted: membranes of HEK293 cells expressing recombinant human DP2, 1 nM [3H]PGD2; read-out: hDP2. As to the method:
The ability of a compound to bind to the human DP2 receptor is assessed via a radioligand binding assay using [^3H]PGD2. HEK293 cells stably expressing recombinant human DP2 are resuspended in 10 mM Hepes, 7.4 containing 1 mM DTT, lysed and centrifuged at 75,000×g to pellet the membranes. The membranes are resuspended in 10 mM Hepes, 7.4 containing 1 mM DTT and 10% glycerol to approximately 5 mg protein/ml. Membranes (2-10 μg protein/well) are incubated in 96-well plates with 1 nM [^3H]PGD2 and test compound in Assay Buffer (50 mM Hepes, 10 mM MnCl2, 1 mM EDTA, plus or minus 0.2% human serum albumin, pH 7.4) for 60 minutes at room temperature. The reactions are terminated by rapid filtration through Whatman GF/C glass fibre filter plates. The filter plates were pre-soaked in 0.33% polythylenimine for 30 minutes at room temperature then washed in Wash Buffer (50 mM Hepes, 0.5 M NaCl pH 7.4) prior to harvesting. After harvesting, the filter plates are washed 3 times with 1 ml cold Wash Buffer then dried. Scintillant is then added to the plates and the radioactivity retained on the filters is determined on a Packard TopCount (Perkin Elmer). Specific binding is determined as total radioactive binding minus non-specific binding in the presence of 10 μM PGD2. IC50s were determined using GraphPad prism analysis of drug titration curves.

Regarding `COc1ccc(CC(=O)O)cc1Oc1ccc(NC(=O)C(C)(C)C)cc1CSc1ccc(Cl)cc1` [Compound 5, {3-[2-(4-chloro-phenylsulfanylmethyl)-4-(2,2-dimethyl-propionylamino)-phenoxy]-4-methoxy-phenyl}-acetic acid], the IC50 is < 300 nM.

As to `CC(C)(C)SCc1cc(NC(=O)C(C)(C)C)ccc1Oc1cc(Cl)cc(CC(=O)O)c1` [Compound 47, {3-[2-tert-Butylsulfanylmethyl-4-(2,2-dimethyl-propionylamino)-phenoxy]-5-chloro-phenyl}-acetic acid], the IC50 is < 300 nM.

As to `COc1ccc(CC(=O)O)cc1Oc1ccc(NC(=O)C2CC2)cc1CSC(C)(C)C` [Compound 35, {3-[2-tert-butylsulfanylmethyl-4-(cyclopropanecarbonyl-amino)-phenoxy]-4-methoxy-phenyl}-acetic acid], the IC50 is < 300 nM.

In the case of `CCc1ccc(CC(=O)O)cc1Oc1ccc(NC(=O)C(C)(C)C)cc1CSCC(F)(F)F` [Compound 56, {3-[4-(2,2-Dimethyl-propionylamino)-2-(2,2,2-trifluoro-ethylsulfanylmethyl)-phenoxy]-4-ethyl-phenyl}-acetic acid], the IC50 was < 300 nM.

Turning to `COc1ccc(CC(=O)O)cc1Oc1ccc(NC(=O)c2ccc(Cl)cc2)cc1CS(=O)(=O)c1ccccc1` [Compound 24, {3-[2-Benzenesulfonylmethyl-4-(4-chloro-benzoylamino)-phenoxy]-4-methoxy-phenyl}-acetic acid], the IC50 is < 300 nM. For the molecule `COc1ccc(CC(=O)O)cc1Oc1ccc(NC(=O)NCc2ccccc2)cc1CSc1ccc(Cl)cc1` [Compound 6, {3-[4-(3-benzyl-ureido)-2-(4-chloro-phenylsulfanylmethyl)-phenoxy]-4-methoxy-phenyl}-acetic acid], the IC50 is < 300 nM. For the molecule `COc1ccc(CC(=O)O)cc1Oc1ccc(NC(=O)C(C)C)cc1CSC(C)(C)C` [Compound 36, [3-(2-tert-Butylsulfanylmethyl-4-isobutyrylamino-phenoxy)-4-methoxy-phenyl]-acetic acid], the IC50 is < 300 nM. Then `COc1ccc(CC(=O)O)cc1Oc1ccc(NC(=O)NCc2ccccc2)cc1CSCC(F)(F)F` [Compound 3, {3-[4-(3-benzyl-ureido)-2-(2,2,2-trifluoro-ethylsulfanylmethyl)-phenoxy]-4-methoxy-phenyl}-acetic acid], with < 300 nM; and `C=Cc1ccc(CC(=O)O)cc1Oc1ccc(NC(=O)C(C)(C)C)cc1CSCC(F)(F)F` [Compound 55, {3-[4-(2,2-Dimethyl-propionylamino)-2-(2,2,2-trifluoro-ethylsulfanylmethyl)-phenoxy]-4-vinyl-phenyl}-acetic acid], with < 300 nM.

In the case of `CC(C)(C)C(=O)Nc1ccc(Oc2cc(CC(=O)O)ccc2OC(F)F)c(CSCC(F)(F)F)c1` [Compound 49, {4-Difluoromethoxy-3-[4-(2,2-dimethyl-propionylamino)-2-(2,2,2-trifluoro-ethylsulfanylmethyl)-phenoxy]-phenyl}-acetic acid], the IC50 was < 300 nM. As for `CC(C)SCc1cc(NC(=O)C(C)(C)C)ccc1Oc1cc(CC(=O)O)ccc1Cl` [Compound 52, {4-Chloro-3-[4-(2,2-dimethyl-propionylamino)-2-isopropylsulfanylmethyl-phenoxy]-phenyl}-acetic acid], the IC50 was < 300 nM. With `CC(C)(C)C(=O)Nc1ccc(Oc2cc(Cl)cc(CC(=O)O)c2)c(CSCC(F)(F)F)c1` [Compound 28, {3-Chloro-5-[4-(2,2-dimethyl-propionylamino)-2-(2,2,2-trifluoro-ethylsulfanylmethyl)-phenoxy]-phenyl}-acetic acid] the figure was < 300 nM; with `COc1ccc(CC(=O)O)cc1Oc1ccc(NS(=O)(=O)c2cccc3c(N(C)C)cccc23)cc1CSC(C)(C)C` [Compound 72, {3-[2-tert-butylsulfanylmethyl-4-(5-dimethylamino-naphthalene-1-sulfonylamino)-phenoxy]-4-methoxy-phenyl}-acetic acid], 300 to 1000 nM. As for `COc1ccc(CC(=O)O)cc1Oc1ccc(NC(=O)NCc2ccccc2)cc1CSC(C)(C)C` [Compound 13, {3-[4-(3-benzyl-ureido)-2-tert-butylsulfanylmethyl-phenoxy]-4-methoxy-phenyl}-acetic acid], the IC50 was < 300 nM. As to `CC(C)(C)C(=O)Nc1ccc(Oc2cc(CC(=O)O)cc(C(F)(F)F)c2)c(CS(=O)(=O)CC(F)(F)F)c1` [Compound 33, {3-[4-(2,2-Dimethyl-propionylamino)-2-(trifluoro-ethanesulfonylmethyl)-phenoxy]-5-trifluoromethyl-phenyl}-acetic acid], the IC50 was < 300 nM.

For the molecule `COc1ccc(CC(=O)O)cc1Oc1ccc(N2CCOC2=O)cc1CSCC(F)(F)F` [Compound 38, {4-Methoxy-3-[4-(2-oxo-oxazolidin-3-yl)-2-(2,2,2-trifluoro-ethylsulfanylmethyl)-phenoxy}-phenyl]-acetic acid], the IC50 was in the range of 300 to 1000 nM. With `COc1ccc(CC(=O)O)cc1Oc1ccc(NC(=O)C(C)(C)C)cc1C[S+]([O-])C(C)C` (stereo not shown) [Compound 11, {3-[4-(2,2-Dimethyl-propionylamino)-2-(propane-2-sulfinylmethyl)-phenoxy]-4-methoxy-phenyl}-acetic acid] the figure was < 300 nM. As to `COc1ccc(CC(=O)O)cc1Oc1ccc(NC(=O)C(C)(C)C)cc1CS(=O)(=O)C(C)C` [Compound 10, {3-[4-(2,2-Dimethyl-propionylamino)-2-(propane-2-sulfonylmethyl)-phenoxy]-4-methoxy-phenyl}-acetic acid], the IC50 is < 300 nM.

In the case of `COc1ccc(CC(=O)O)cc1Oc1ccc(NC(=O)c2ccc(Cl)cc2)cc1CS(=O)(=O)C(C)C` [Compound 22, {3-[4-(4-Chloro-benzoylamino)-2-(propane-2-sulfonylmethyl)-phenoxy]-4-methoxy-phenyl}-acetic acid], the IC50 is < 300 nM.

Consider `CC(C)(C)C(=O)Nc1ccc(Oc2cc(CC(=O)O)ccc2Cl)c(CSCC(F)(F)F)c1` [Compound 53, {4-Chloro-3-[4-(2,2-dimethyl-propionylamino)-2-(2,2,2-trifluoro-ethylsulfanylmethyl)-phenoxy]-phenyl}-acetic acid], for which the IC50 was < 300 nM.

As to `CC(C)(C)C(=O)Nc1ccc(Oc2cc(Cl)cc(CC(=O)O)c2)c(CS(=O)(=O)CC(F)(F)F)c1` [Compound 29, {3-Chloro-5-[4-(2,2-dimethyl-propionylamino)-2-(trifluoro-ethanesulfonylmethyl)-phenoxy]-phenyl}-acetic acid], the IC50 was < 300 nM. As to `CC(C)(C)C(=O)Nc1ccc(Oc2cc(Cl)cc(CC(=O)O)c2)c(CS(=O)(=O)C(C)(C)C)c1` [Compound 48, {3-Chloro-5-[4-(2,2-dimethyl-propionylamino)-2-(2-methyl-propane-2-sulfonylmethyl)-phenoxy]-phenyl}-acetic acid], the IC50 is < 300 nM.

On to `COc1ccc(CC(=O)O)cc1Oc1ccc(NC(=O)c2ccc(Cl)cc2)cc1CSC(C)C` [Compound 20, {3-[4-(4-Chloro-benzoylamino)-2-isopropylsulfanylmethyl-phenoxy]-4-methoxy-phenyl}-acetic acid], for which the IC50 was < 300 nM. As to `COc1ccc(CC(=O)O)cc1Oc1ccc(NC(=O)c2ccc(Cl)cc2)cc1CSC(C)(C)C` [Compound 8, {3-[2-tert-butylsulfanylmethyl-4-(4-chloro-benzoylamino)-phenoxy]-4-methoxy-phenyl}-acetic acid], the IC50 is < 300 nM. Consider `CC(C)S(=O)(=O)Cc1cc(NC(=O)C(C)(C)C)ccc1Oc1cc(Cl)cc(CC(=O)O)c1` [Compound 31, {3-Chloro-5-[4-(2,2-dimethyl-propionylamino)-2-(propane-2-sulfonylmethyl)-phenoxy]-phenyl}-acetic acid], for which the IC50 was < 300 nM. With `COc1ccc(CC(=O)O)cc1Oc1ccc(NC(=O)CC(C)(C)C)cc1CSC(C)(C)C` [Compound 37, {3-[2-tert-Butylsulfanylmethyl-4-(3,3-dimethyl-butyrylamino)-phenoxy]-4-methoxy-phenyl}-acetic acid] the figure was < 300 nM; with `COc1ccc(CC(=O)O)cc1Oc1ccc(NC(=O)c2ccc(Cl)cc2)cc1CSc1ccc(Cl)cc1` [Compound 4, {3-[4-(4-Chloro-benzoylamino)-2-(4-chloro-phenylsulfanylmethyl)-phenoxy]-4-methoxy-phenyl}-acetic acid], < 300 nM. As for `COc1ccc(CC(=O)O)cc1Oc1ccc(NC(=O)CC(C)(C)C)cc1CSCC(F)(F)F` [Compound 16, {3-[4-(3,3-Dimethyl-butyrylamino)-2-(2,2,2-trifluoro-ethylsulfanylmethyl)-phenoxy]-4-methoxy-phenyl}-acetic acid], the IC50 is < 300 nM.

The values above are taken from patent publication US20110144160A1, “Antagonists of Prostaglandin D2 Receptors” (Amira Pharmaceuticals, Inc., priority 2008, published 2011).
